Measurements published in PMC8840040, “Pharmacokinetic Characterization of the DDAH1 Inhibitors ZST316 and ZST152 in Mice Using a HPLC-MS/MS Method” (Molecules, 2022).
Read-outs that look alike come from different tables or passages of the source.

Legend:
[1] = tested on: human recombinant DDAH1; set-up: method as in PMID 26420019; conditions: cited from earlier work; for IC50 / Ki: human recombinant DDAH1 expressed in HEK293T cells; for IC50: read-out: IC50 towards DDAH1; for Ki: read-out: Ki towards DDAH1
[2] = Urinary metabolites in 24 h urine by HPLC-MS/MS; assay type: in vivo, FVB mice
Procedure: The assessment of the urinary elimination after oral and intravenous administration, in the urine fraction collected 24 h post dose, is reported in Table 6. […] To further investigate this issue, we searched for the presence of urinary metabolites in the 24 h urine samples in one mouse per treatment group. We identified at least eight molecules most likely originating from the parent compounds (Table 7; see Supplementary Figure S1 for the hypothesized structures).
Mice were treated with ZST316 and ZST152 using a dose of 60 mg/Kg (oral gavage) and 30 mg/Kg (intravenous bolus). For pharmacokinetic sampling, blood was collected at 15 and 30 min, and 1, 3, 8, and 24 h post dose. Three mice were analyzed per each time point. After the animals were anesthetized with isoflurane, the blood was drained from the retro-orbital plexus into heparinized tubes, and then centrifuged for 10 min at 4000× g at 4 °C to separate plasma. A 24-h urine fraction was collected in three mice for each drug and route of administration. Plasma and urine samples were stored at −20 °C until analysis by HPLC-MS/MS.
(§1) […] chromatography was performed using a series 200 HPLC system (Perkin Elmer, Waltham, MA, USA) under gradient conditions with separation on a HILIC column, 3 µm, 100 A, 2.1 × 150 mm (Waters, Milford, MA, USA), coupled with a 3 µm, 3.9 × 5.0 mm guard column of the same material at the flow rate of 0.2 mL/min. Gradient features: 10% mobile phase (MP) A (NH4HCO2 10 mM, 10% CH3CN, 0.1% HCOOH) and 90% MP B (CH3CN, 0.1% HCOOH) as the initial constant condition; then to 90% MP A in 6 min and the constant condition for 1.5 min. Return to the start condition in 0.5 min and conditioning for 5.5 min. Total run time: 13.5 min. Mass spectrometric detection was performed using an API 4000 triple quadrupole mass spectrometer (SCIEX, Framingham, MA, USA) supplied with a Turbo Ion Spray source set at 350 °C and −4200 V, analyzing biological samples with electrospray ionization (ESI) operating in negative ion mode. Purified air was used as nebulizer gas (Gas 1) and heater gas (Gas 2) and N2 was used as curtain gas and collision activated dissociation gas. They were set to 40, 50, 20, and 4 instrument units (psi), respectively. The declustering potential (DP) was set at −119 V and the collision exit potential (CXP) at –10 V. All parameters of the source were defined by direct infusion of ZST316 and ZST152 1 µg/mL in mobile phase B. The final quantification was carried out in Selected Reaction Monitoring (SRM) with the following transitions: m/z 307.9 → 208.0 (collision energy of −29.5 eV) for ZST316 and m/z 271.9 → 170.9 (collision energy −24.7 eV) for ZST152 (Figure 2 and Figure 3). Data were processed with the software package Analyst 1.6.2 (AB SCIEX).

[3] = Tolerability of chronic intraperitoneal treatment (clinical signs, body weight); assay type: in vivo; conditions: i.p. 30 mg/Kg/day for three weeks
Procedure: (§2) In this study, 18 mice received a single dose and were sampled within 24 h, and the other 18 were treated every day for three weeks (qdx21) and sampled on day 21. Mice were monitored daily for clinical signs of toxicity and distress, and body weight was measured at least twice a week. Blood samples were collected after both treatment regimens at 15 and 30 min, and 1, 3, 8, and 24 h post dose. Three mice were analyzed for each time point. After the animals were anesthetized with isoflurane, the blood was drained from the retro-orbital plexus into heparinized tubes, and then centrifuged for 10 min at 4000 g at 4 °C to separate plasma. A 24-h urine fraction was collected in three mice for each drug and route of administration. Plasma and urine samples were stored at −20 °C until analysis by HPLC-MS/MS.

[4] = Plasma pharmacokinetics and urinary elimination after acute and chronic intraperitoneal administration; assay type: in vivo, FVB mice
Procedure: as §2, §1
Pharmacokinetic parameters and descriptive statistics (means, standard deviations, percentages) were calculated using Phoenix WinNonlin V 8.3 (Certara Inc., Princeton, NJ, USA).

[5] = after intravenous ZST152, total dose 1.410 mg, mouse #1, 24 h urine
[6] = after oral ZST152, total dose 1.158 mg, mouse #3, 24 h urine
[7] = after intravenous ZST316, total dose 1.326 mg, mouse #1, 24 h urine
[8] = after oral ZST316, total dose 1.308 mg, mouse #3, 24 h urine
[9] = FVB, mouse, plasma, ip, i.p. 30 mg/Kg, acute
[10] = FVB, mouse, plasma, ip, i.p. 30 mg/Kg/day, chronic

COCCNC(=N)NCCC[C@H](N)c1noc(=O)[nH]1 [ZST152]
IC50 [1]: 18 µM | Ki [1]: 7 µM | % of Dose recovered in urine [2, 5]: 10.5% | Amount Recovered in urine [2, 5]: 148 µg | % of Dose recovered in urine [2, 6]: 6.5% | Amount Recovered in urine [2, 6]: 75.0 µg

COCCNC(=N)NCCC[C@H](N)C(=O)NS(C)(=O)=O [ZST316]
IC50 [1]: 3 µM | Ki [1]: 1 µM | greater inhibitory activity towards DDAH1 compared to reference inhibitor L-257 ([1]; vs L-257): 13 fold | % of Dose recovered in urine [2, 7]: 3.1% | Amount Recovered in urine [2, 7]: 41.2 µg | % of Dose recovered in urine [2, 8]: 2.2% | Amount Recovered in urine [2, 8]: 28.9 µg | tolerability of chronic treatment [3]: well tolerated | body weight during treatment vs. untreated animals ([3]; 30 mg/kg/day): no changes in body weight vs. untreated animals | clinical signs of toxicity or distress ([3]; 30 mg/kg/day): no clinical signs of toxicity or distress were noticed | AUC(0-t) ([4]; FVB, mouse, plasma, ip, 30 mg/kg, i.p. 30 mg/Kg, acute, read-out: AUC 0-8h): 14300 ng·h/mL | AUC(0-t) ([4]; FVB, mouse, plasma, ip, 30 mg/kg, i.p. 30 mg/Kg, acute, read-out: AUC 0-last): 14400 ng·h/mL | AUC(0-t) ([4]; FVB, mouse, plasma, ip, 30 mg/kg/day, i.p. 30 mg/Kg/day, chronic, read-out: AUC 0-8h): 12300 ng·h/mL | AUC(0-t) ([4]; FVB, mouse, plasma, ip, 30 mg/kg/day, i.p. 30 mg/Kg/day, chronic, read-out: AUC 0-last): 12600 ng·h/mL | AUC(0-inf) [4, 9]: 14500 ng·h/mL | Tmax [4, 9]: 0.25 h | half-life [4, 9]: 5.7 h | Cmax ([4]; FVB, mouse, plasma, ip, i.p. 30 mg/Kg, acute (single dose)): 40200 ng/mL | bioavailability ([4]; FVB, mouse, plasma, ip, i.p. 30 mg/Kg, acute, read-out: F % (bioavailability)): 67% | Cmax at 21 days ([4]; FVB, mouse, plasma, ip, i.p. 30 mg/Kg/day for three weeks, chronic (day 21)): 33600 ng/mL | AUC(0-inf) [4, 10]: 12700 ng·h/mL | Tmax [4, 10]: 0.25 h | half-life [4, 10]: 8.4 h | bioavailability at 21 days ([4]; FVB, mouse, plasma, ip, i.p. 30 mg/Kg/day, chronic, read-out: F % (bioavailability)): 59% | 24-h urinary excretion (% of dose) ([4]; i.p. 30 mg/Kg, acute): 56.1 % of dose | urinary excretion, % of the administered dose ([4]; i.p. 30 mg/Kg, acute/chronic not distinguished): 55% | accumulation after chronic treatment ([4]; i.p. 30 mg/Kg/day for three weeks, 30 mg/kg/day): no accumulation was observed | 24-h urinary excretion (% of dose) ([4]; i.p. 30 mg/Kg/day, chronic): 54.1 % of dose
